Measured values taken from patent US20020128264A1, “Methods for treatment of conditions affected by activity of multidrug transporters” (priority 2000, published 2002).
Like-named read-outs stand apart in the source and are kept apart here. Each block holds one compound with its values, some of them ahead of it.

What was measured:
[1] = Intraparenchymal (ipc) efflux from brain; type: in vivo, mice; details: ipc administration
Description: (§1) Male Swiss-Webster CFW mice were supplied by Charles River Laboratories (Hollister, Calif.) and all experiments were conducted according to the NIH Guide on Care and Use of Laboratory Animals. Mice were 2-3 months old at the time of use.
These experiments were conducted according the method of Banks et al. (1994) with minor modifications. Mice were anesthetized and then immobilized in a stereotaxic apparatus with a mouse adaptor coupled to a microinjection unit (Kopf, Tujunga, Calif.). A small hole was made in the skull with a Dremel drill (model 770; 2.4 mm drill bit, model 107) at −1 mm AP and 1 mm LL relative to Bregma. Using a guarded 0.5 μL Hamilton syringe (25 g), 0.1 μL PBS containing ^14C-AIT-082 ([…]) or ^3H-sucrose (˜5×10^4 dpm/μL) was injected ipc at […] with respect to the skull. Back flux of injection fluid was collected and at various times after injection brains were removed. The amount of radioactivity in brain, back flux and injection mixture was measured. The amount of radioactivity in the brain was corrected for the back flux and the log of this corrected dpm was plotted against time. The t½ was calculated as described above.
(§2) All data are presented as mean ±S.E. For comparisons of means from 2 groups an unpaired Student's t-test was used. For comparisons of means from 3 groups, ANOVA was performed coupled with Scheffe's post-hoc analysis.

[2] = Intracerebroventricular (icv) efflux from brain; type: in vivo, mice; details: icv administration
Description: as §1
(§3) These experiments were conducted according to the method of Banks et al. (1997) with minor modifications. The skull was exposed and, with a guarded 25 g needle, a hole was made through the skull at 1 mm anterior posterior (AP) and 1 mm lateral left (LL), relative to Bregma, and 3.5 mm dorsal ventral (DV), with respect to the skull. A guarded 1 μL Hamilton syringe (25 g) was used to inject 1 μL of PBS containing ^14C-AIT-082 (˜4.5×10^4 dpm/μL), ^3H-sucrose (˜3×10^4 dpm/μL), or ^3H-quinidine (˜3×10^4 dpm/μL) icv into mice. After injection and upon withdrawing the needle, there was often back flux of fluid that was collected. At various times after injection the amount of radioactivity remaining in the brain was determined. The amount of radioactivity in the back flux and injection mixture was also determined. Radioactivity in brain was corrected for the back flux and the log of this corrected dpm was plotted against time. The t½, was the inverse of the slope of the line multiplied by 0.301 (Banks et al., 1997).
as §2

MRPs [3] = experiment: Effect of MRP inhibitors on efflux of 14C-AIT-082 from brain after icv administration; type: in vivo, mice; details: icv co-administration with 14C-AIT-082
Description: To examine the role of P-gp and MRP, various substrates/inhibitors were co-administered with ^14C-AIT-082. […] In all experiments the control group of animals was given ^14C-AIT-082 in PBS. Additionally, in experiments in which probenecid or verapamil were used, a second control group was given ^14C-AIT-082 in PBS containing 370 mM NaOH and 370 mM HCl, pH 7.4, or 14C-AIT-082 in PBS with 4.2% ethanol, pH 7.4, respectively.
All data are presented as mean ±S.E. For comparisons of means from 2 groups an unpaired Student's t-test was used. […]

MRPs [4] = experiment: Effect of MRP inhibitors on efflux of 14C-AIT-082 from brain after ipc administration; type: in vivo, mice; details: ipc co-administration with 14C-AIT-082
Description: Mice were anesthetized and then immobilized in a stereotaxic apparatus with a mouse adaptor coupled to a microinjection unit (Kopf, Tujunga, Calif.). […] Back flux of injection fluid was collected and at various times after injection brains were removed. The amount of radioactivity in brain, back flux and injection mixture was measured. The amount of radioactivity in the brain was corrected for the back flux and the log of this corrected dpm was plotted against time. The t½ was calculated as described above.
As above, all experiments included a control group in which ^14C-AIT-082 was administered in PBS.

[5] = Taylor et al., 2000, cited from earlier work
P-gp = target: T1, P-gp (Mus musculus, UniProt P21447); experiment: Effect of AIT-082 on efflux of 3H-quinidine (P-gp substrate) from brain after icv administration; type: in vivo, mice; details: quinidine is a P-gp substrate
T1 construct: from tissue; host or cells: brain of living mice (in vivo efflux after icv or ipc injection)
T1 sequence (P21447 whole entry): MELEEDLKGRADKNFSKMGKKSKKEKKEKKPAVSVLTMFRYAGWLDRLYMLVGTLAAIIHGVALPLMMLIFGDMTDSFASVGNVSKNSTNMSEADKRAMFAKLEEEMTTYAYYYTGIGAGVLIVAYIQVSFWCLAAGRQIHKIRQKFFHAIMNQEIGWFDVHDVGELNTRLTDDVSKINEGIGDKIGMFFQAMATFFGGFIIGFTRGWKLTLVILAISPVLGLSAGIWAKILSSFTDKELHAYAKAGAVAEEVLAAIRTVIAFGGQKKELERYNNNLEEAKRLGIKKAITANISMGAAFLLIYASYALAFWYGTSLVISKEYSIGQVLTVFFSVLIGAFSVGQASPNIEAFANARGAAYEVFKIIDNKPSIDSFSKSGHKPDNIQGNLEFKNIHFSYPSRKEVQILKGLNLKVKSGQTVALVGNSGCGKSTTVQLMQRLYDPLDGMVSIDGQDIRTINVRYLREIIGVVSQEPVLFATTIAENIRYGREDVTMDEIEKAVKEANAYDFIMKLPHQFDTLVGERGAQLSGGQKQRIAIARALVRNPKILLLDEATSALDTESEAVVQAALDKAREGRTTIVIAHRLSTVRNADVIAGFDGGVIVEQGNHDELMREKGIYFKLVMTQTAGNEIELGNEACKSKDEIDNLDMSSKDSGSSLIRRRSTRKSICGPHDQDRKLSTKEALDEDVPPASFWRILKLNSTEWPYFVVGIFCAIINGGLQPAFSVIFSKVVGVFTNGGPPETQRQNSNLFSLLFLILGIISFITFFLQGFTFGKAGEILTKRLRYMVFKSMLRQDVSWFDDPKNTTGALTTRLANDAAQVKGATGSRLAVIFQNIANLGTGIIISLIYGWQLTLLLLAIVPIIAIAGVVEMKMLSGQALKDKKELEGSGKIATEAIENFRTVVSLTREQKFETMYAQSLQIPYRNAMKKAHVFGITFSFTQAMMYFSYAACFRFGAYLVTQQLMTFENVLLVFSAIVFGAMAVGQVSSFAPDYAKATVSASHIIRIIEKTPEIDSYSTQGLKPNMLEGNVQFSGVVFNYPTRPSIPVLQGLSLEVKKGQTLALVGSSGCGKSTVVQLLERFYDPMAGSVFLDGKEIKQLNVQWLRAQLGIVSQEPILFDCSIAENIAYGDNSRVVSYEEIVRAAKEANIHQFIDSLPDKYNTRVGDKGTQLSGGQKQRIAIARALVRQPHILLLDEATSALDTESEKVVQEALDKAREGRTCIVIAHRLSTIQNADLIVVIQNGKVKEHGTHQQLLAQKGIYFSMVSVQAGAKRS
Description: as §3, §2

[6] = Taylor et al., 2000, cited from earlier work; remark: listed apart in the source
[7] = passively transported compound, t½ significantly higher

transport out of brain compared with 14C-AIT-082 [1, 7]: significantly slower | transport out of brain compared with 14C-AIT-082 [2, 7]: significantly slower
SMILES: OC[C@H]1O[C@@](CO)(O[C@H]2O[C@H](CO)[C@@H](O)[C@H](O)[C@H]2O)[C@@H](O)[C@@H]1O [^3H-sucrose, sucrose, reference compound]

SMILES: CCCN(CCC)S(=O)(=O)c1ccc(C(=O)O)cc1 [probenecid]
effect on efflux of 14C-AIT-082 from brain (MRPs [3]): significantly inhibited | effect on efflux of 14C-AIT-082 from brain (MRPs [4]): significantly inhibited

SMILES: O=C(CCn1cnc2c(=O)[nH]cnc21)Nc1ccc(C(=O)O)cc1 [AIT-082, N-4-carboxyphenyl-3-(6-oxohydropurin-9-yl)propanamide]
effect of excess unlabeled AIT-082 on efflux of 14C-AIT-082 from brain [5]: inhibited | t½ of transport out of brain ([5]; after intracerebroventricular administration): approximately 20 minutes | effect of excess unlabeled AIT-082 on efflux of 14C-AIT-082 from brain (saturability) [1]: inhibited | t½ of transport out of brain ([1]; mice, mean ±S.E.): 35.0 ± 1.9 min | effect on efflux of 3H-quinidine from brain (P-gp): inhibited | effect of excess unlabeled AIT-082 on efflux of 14C-AIT-082 from brain (saturability) [2]: inhibited | t½ of transport out of brain ([2]; mice, mean ±S.E.): 20 ± 1.0 min | mechanism of transport into brain [6]: non-saturable mechanism | amount detectable in cortical extracellular fluid ([6]; capillary depletion and microdialysis): low micromolar quantities
